Test results published in patent US20070049620A1, “Cyclic tertiary amine compound” (SANKYO COMPANY, LIMITED, priority 2003, published 2007).

First: CNC(=O)c1ccc([C@@H]2C[C@H]3C=C(c4c[nH]c(-c5ccc(F)cc5)c4-c4ccncc4)CCN3C2)cc1 [Example 53, 2-(4-Fluorophenyl)-4-[(2S,8aS)-2-[4-(N-methylcarbamoyl)phenyl]-1,2,3,5,6,8a-hexahydroindolizin-7-yl]-3-(pyridin-4-yl)-1H-pyrrole]
Second: CCNC(=O)c1ccc([C@@H]2C[C@H]3C=C(c4c[nH]c(-c5ccc(F)cc5)c4-c4ccncc4)CCN3C2)cc1 [Example 54, 4-[(2S,8aS)-2-[4-(N-Ethylcarbamoyl)phenyl]-1,2,3,5,6,8a-hexahydroindolizin-7-yl]-2-(4-fluorophenyl)-3-(pyridin-4-yl)-1H-pyrrole]
The melting point of the first is lower: 171 to 173 °C for the first, 178 to 180 °C for the second.

Compared with `O=C(NCc1ccccc1)c1ccc([C@@H]2C[C@H]3C=C(c4c[nH]c(-c5ccc(F)cc5)c4-c4ccncc4)CCN3C2)cc1` [Example 55, 4-[(2S,8aS)-2-[4-(N-Benzylcarbamoyl)phenyl]-1,2,3,5,6,8a-hexahydroindolizin-7-yl]-2-(4-fluorophenyl)-3-(pyridin-4-yl)-1H-pyrrole], `O=C(NCCF)c1ccc([C@@H]2C[C@H]3C=C(c4c[nH]c(-c5ccc(F)cc5)c4-c4ccncc4)CCN3C2)cc1` [Example 57, 4-[(2S,8aS)-2-[4-[N-(2-Fluoroethyl)carbamoyl]phenyl]-1,2,3,5,6,8a-hexahydroindolizin-7-yl]-2-(4-fluorophenyl)-3-(pyridin-4-yl)-1H-pyrrole] is higher in melting point: 173 to 175 °C for the first, 183 to 185 °C for the second.

Compared with `O=C(NC1CC1)c1ccc([C@@H]2C[C@H]3C=C(c4c[nH]c(-c5ccc(F)cc5)c4-c4ccncc4)CCN3C2)cc1` [Example 56, 4-[(2S,8aS)-2-[4-(N-Cyclopropylcarbamoyl)phenyl]-1,2,3,5,6,8a-hexahydroindolizin-7-yl]-2-(4-fluorophenyl)-3-(pyridin-4-yl)-1H-pyrrole], `CCCNC(=O)c1ccc([C@@H]2C[C@H]3C=C(c4c[nH]c(-c5ccc(F)cc5)c4-c4ccncc4)CCN3C2)cc1` [Example 58, 2-(4-Fluorophenyl)-4-[(2S,8aS)-2-[4-(N-propylcarbamoyl)phenyl]-1,2,3,5,6,8a-hexahydroindolizin-7-yl]-3-(pyridin-4-yl)-1H-pyrrole] is lower in melting point: 200 to 202 °C for the first, 190 to 192 °C for the second.

Compared with `CC(C)NC(=O)c1ccc([C@@H]2C[C@H]3C=C(c4c[nH]c(-c5ccc(F)cc5)c4-c4ccncc4)CCN3C2)cc1` [Example 59, 2-(4-Fluorophenyl)-4-[(2S,8aS)-2-[4-(N-isopropylcarbamoyl)phenyl]-1,2,3,5,6,8a-hexahydroindolizin-7-yl]-3-(pyridin-4-yl)-1H-pyrrole], `COCCNC(=O)c1ccc([C@@H]2C[C@H]3C=C(c4c[nH]c(-c5ccc(F)cc5)c4-c4ccncc4)CCN3C2)cc1` [Example 61, 2-(4-Fluorophenyl)-4-[(2S,8aS)-2-[4-(N-(2-methoxyethyl)carbamoyl)phenyl]-1,2,3,5,6,8a-hexahydroindolizin-7-yl]-3-(pyridin-4-yl)-1H-pyrrole] is lower in melting point: 202 to 204 °C for the first, 166 to 168 °C for the second.
